pIC50: −log10 of the molar value. Where only a bound is given, the exact number is not on record here.

One may read the pIC50 as the negative decadic logarithm of the IC50, by convention in mol/L. Low values mean a high IC50, high ones a low IC50.

For one data set, the target named is T1, CD11b/CD18 (Homo sapiens, UniProt P05107+P11215).
T1 construct: peptide-coated wells, C3bi-erythrocyte rosetting
Nature of the data set: Downmodulation of CD11b/CD18 on macrophages (binding of C3bi-coated erythrocytes). It is filed as cell-based. The following applies: peptides 0.5 mM. The procedure: FIG. 27 is a bar graph representation of the downmodμlation of CD11b/CD18 by FHA-peptides. mAb IB4 (50 μg/ml) served as a positive control. Data represent means±standard deviations of triplicate experiments with 6 wells/peptide.
Human monocytes were purified from buffy coats on Percoll gradients and cultured in 12.5% human serum in Teflon beakers. Macrophages were harvested from Teflon beakers after 6-8 days and suspended in HAP buffer. Terasaki wells were coated with 5 μl of peptides (0.5 mM) or anti-CD18 mAb IB4 (50 μg/ml). Control wells were coated with HAP. After 2 hours of incubation at RT, 5 μl of macrophages (5×10^5 /ml HAP) were added and allowed to spread for 45 mins. at 37° C. […] IgM-coated erythrocytes in buffer served as negative control. After washing, the number of erythrocytes bound per 100 leukocytes (adherence index) was quantitated visually under an inverted microscope.

In data set [1] the test system is peripheral white blood cells. Kind of data set: Rat meningitis model: peripheral white blood cell concentrations. Format: in vivo, female Wistar rats. The note with it: following i.v. administration. How it is done:
(§1) Three hours after LOS inoculation, 5 μCi of ^125 I-radiolabelled albumin in 50 μl normal saline was administered intravenously. One hour later, CSF was collected via intracisternal puncture and blood samples were collected via intracardiac puncture. CSF leukocytosis was determined by manually counting white blood cells using a hemacytometer, and blood-brain barrier permeability was determined as the percent of radioactivity in whole blood that was present in the CSF. Blood samples were obtained immediately prior to inoculation, immediately prior to treatment, and at 4 hours post-inoculation for determination of peripheral white blood cell concentrations.

Data set [2] can be described thus: Stability of FHA II peptide in 50% rabbit plasma. The note with it: 37° C. Format: in vitro ADME.
Procedure: To determine the stability of the FHA II peptide, the unmodified or the acetylated-amidated peptide were incubated in 50% rabbit plasma at 37° C.
A further data set has as its system CSF leukocytosis. Nature of the data set: Rat meningitis model (LOS): CSF leukocytosis. The note with it: 600 nmol i.v., 4 hours after LOS. It is filed as in vivo, female Wistar rats. The procedure: The experiments were performed according to established protocols (Wispelway et al., 1988, J. Clin. Invest., 82: 1339-1346). Purified Haemophilus influenzae type b strain DL42 lipooligosaccharide (LOS) was prepared for inoculation by sonication for 30 minutes, dilution to the desired concentration (20 ng/50 μl) in normal saline or PBS, and sonication for an additional 15 to 30 minutes just prior to use.
Briefly, anesthetized female Wistar rats were placed under a micromanipulator and inoculated intracisternally with a 25 gauge needle. After removal of 50 μl of CSF (without visible blood contamination), rats were inoculated intracisternally with 50 μl (20 ng) of LOS using a 1 ml syringe with a 25 gauge needle. Ten to fifteen minutes after inoculation with LOS, the rats were treated by intravenous administration of the test substance: a solution of an FHA peptide in PBS, a solution of a control peptide in PBS, or an equal volume of PBS alone.
as §1

Data set [3] has as its system Factor Xa procoagulant activity on THP-1 cells. Nature of the data set: Generation of Factor Xa by monocytes (THP-1), clotting assay. It is filed as cell-based. The following applies: for Factor Xa / Clotting time: peptides 0.5 mM; for Clotting time: mean ± SD of at least 3 experiments. The procedure: Factor Xa generation was determined by a modification of the method of Miletich et al. (1978), J. Biol. Chem. 253: 6908-6916. THP-1 cells (ATCC; […]) resuspended in RPMI 1640 (Bio Whittaker, Walkersville,Md.) were incubated with 100 μM ADP (Sigma), 2.5 mM CaC2, 1 or 5 μg/ml Factor X (Hematologic Technologies Inc.) and 0.5 mM peptides at room temperature. After 20 minutes, 100 μl of the reaction mixture was transferred to 37° C. and supplemented with 100 μl of bovine factor VII- and Factor X-deficient plasma (Sigma). Coagulation was initiated by adding 100 μl of 25 mM CaC2 and the clotting time was determined. Factor Xa procoagulant activity (ng/ml) was calculated by means of a standard curve constructed by serial concentrations of Factor Xa (Hematologic Technologies Inc.) from 50 to 250 ng/ml.

Data set [4] has as its system 125I-Factor X binding to human neutrophils (CD11b/CD18). Kind of data set: Inhibition of 125I-Factor X binding to neutrophils. Format: cell-based. The note with it: for inhibition of 125I-Factor X binding to neutrophils: peptides 0.5 mM, native FHA 0.3 μM. How it is done: FIG. 15 is a bar graph representation of the inhibition of ^125 I-Factor X binding to neutrophils by FHA, FHA- or Factor X-peptides as identified in Table 6. The concentration of inhibiting substances was: peptides 0.5 mM, native FHA 0.3 μM. Values represent the mean±standard deviation of triplicate experiments.
FIG. 16 is a graphical representation of the FHA, FHA- or Factor X-peptide concentration effect on the inhibition of ^125 I-Factor X binding to neutrophils. FHA peptide II (Square) and Factor X peptide II (Circle) at 10^-2 to 5×10^2 μM; FHA at 10^-6 to […] (triangle). Values are representative of triplicate experiments (standard deviations <15%).
Human Factor X (Sigma or Hematologic Technologies Inc.) was labeled with ^125 I using Iodogen (Pierce Chemical Co.) Human neutrophils were isolated from heparinized blood according to the manufacturer's specification using Neutrophil Isolation Medium (Cardinal Associates, Santa Fe, N. Mex.) and washed three times with 5 mM EDTA-phosphate-buffered saline (PBS), pH 7.2, at 4° C. To eliminate platelet contamination, neutrophils were incubated with autologous serum containing 5 mM EDTA for 30 mins. at 37° C., washed three times with ice-cold PBS, pH 7.2, and resuspended in RPMI 1640 tissue culture medium (Whittaker M.A. Bioproducts, Walkersville, Md.) at 4° C. Binding of ^125 I-Factor X to neutrophils was measured based on a method described by Altieri et al. (1991) Science 254: 1200-1202. Briefly, 200 μl of neutrophils (1.5×10^7 /ml) were supplemented with 17.5 μl of 50 mM CaCl2, stimulated with 3.5 μl of 100 μM NH2 -formyl-Met-Leu-Phe (Sigma), and mixed with 30 μl of 10.3 μg/ml ^125 I-Factor X and 100 μl of 1.75 mM of peptide. Buffer alone and a peptide of scrambled sequence served as controls in each of the 3 experiments. After incubation for 20 mins. at room temperature, neutrophil-bound ^125 I-Factor X was separated from unbound ^125 I-Factor X by centrifugation of 300 μl aliquots through 50 μl of a mixture of Hi phenyl silicone oil DC 550 and methyl silicone oil DC 200 5:1 (Nye Inc. Specialty Lubricants, New Bedford, Mass.) at 12,000×g for 2 mins. Aliquots of the supernatant (cell free ^125 I-Factor X) and the cell pellet (cell bound ^125 I-Factor X) were counted in a gamma-counter. Nonspecific binding (~50,000 cpm) was determined by adding a 100 fold excess of unlabeled Factor X, and subtracted from total radioactivity (~500,000 cpm for controls).

The conditions of data set [5]: ciliary extracts; cited from earlier work.

T1 sequence (P05107 23-769, other chains not shown): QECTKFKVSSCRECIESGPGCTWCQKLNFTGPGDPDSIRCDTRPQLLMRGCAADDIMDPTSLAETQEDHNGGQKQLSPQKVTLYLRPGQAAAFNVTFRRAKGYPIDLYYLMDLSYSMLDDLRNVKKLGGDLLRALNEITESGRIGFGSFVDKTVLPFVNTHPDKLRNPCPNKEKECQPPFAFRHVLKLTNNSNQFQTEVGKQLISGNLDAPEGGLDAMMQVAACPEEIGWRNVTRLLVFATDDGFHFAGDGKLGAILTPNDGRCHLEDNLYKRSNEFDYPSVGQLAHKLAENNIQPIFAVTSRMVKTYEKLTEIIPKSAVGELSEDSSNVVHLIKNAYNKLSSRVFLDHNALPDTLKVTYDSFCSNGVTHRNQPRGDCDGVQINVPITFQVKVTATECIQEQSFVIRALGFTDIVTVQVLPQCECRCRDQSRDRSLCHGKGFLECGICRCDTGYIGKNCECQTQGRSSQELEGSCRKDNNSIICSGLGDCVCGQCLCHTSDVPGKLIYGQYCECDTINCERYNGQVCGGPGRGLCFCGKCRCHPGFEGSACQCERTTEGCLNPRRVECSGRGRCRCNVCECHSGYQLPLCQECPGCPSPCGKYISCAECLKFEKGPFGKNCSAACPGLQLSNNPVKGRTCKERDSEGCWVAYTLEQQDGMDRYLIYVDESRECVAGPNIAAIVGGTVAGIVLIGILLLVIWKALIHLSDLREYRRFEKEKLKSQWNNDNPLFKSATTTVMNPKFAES

Turning to AADPHQGVLAQGDIIMDAKG [FHA Cc], the “downmodulation of CD11b/CD18 (in words)” value with CD11b/CD18 was “no significant effect”.

As to Ac-ETKEVDG-NH2 [Acetyl/Amide-FHA II], the neutropenia entry in data set [1] is listed as “No neutropenia was observed”. Moreover, the “stability in plasma (in words)” value in data set [2] (48 hours) is “remained unchanged over 48 hours”. The “Leukocytosis (CSF)” value was “approximately 10,000 cells/ml” in the data set on CSF leukocytosis and 10,500 ± 8523 cells/ml in the data set with CSF leukocytosis (listed as ac/am FHA II).

Consider “DEETVK [scrambled FHA II, reference compound]”, for which, in data set [3], the “Factor Xa” value was 165.0 ng/mL and the Clotting time was determined as 23.1 ± 1.0 s. Further, in data set [3] (control FHA II peptide), the “Factor Xa” value came out at 165 ng/mL.

Regarding ETKEVDG [FHA II], in data set [4], the pIC50 is 5.00 and the “inhibition of 125I-Factor X binding to neutrophils” value is reported as 87±8%. In addition, in data set [2], the “time in which concentration decreased by half” value fell in the range of 4 to 6 h. Further, in data set [3], the “effect on Factor Xa generation (in words)” value is “did not interfere with the generation of Factor Xa procoagulant activity”, the “Factor Xa” value was 86.0 ng/mL and the Clotting time stood at 30.0 ± 5.0 s.

In the case of GTLLLRNDALTENGTVTISA [FHA Cd], the “downmodulation of CD11b/CD18 (in words)” value in the data set with CD11b/CD18 is recorded as “no significant effect”.

Substance GYDTKQEDG [Factor X II] gave a pIC50 in data set [4] of 3.30. In addition, the “reduction of Factor Xa production” value in data set [3] (0.5 mM, vs scrambled FHA II, 20 min) was greater than 90%. Moreover, in data set [3], the “Factor Xa” value is less than 10 ng/mL and the Clotting time was 55.2 ± 4.0 s.

In the case of “LGYQAK (UniProt P12255 1979-1984, looked up, fragment) [FHA Ia]”, in data set [3], the “Factor Xa” value was 57.4 ng/mL and the Clotting time was found to be 34.1 ± 1.1 s.

Regarding RADPHQGVLAQGDIIMDAKG [FHA Cb], the “downmodulation of CD11b/CD18 (in words)” value in the data set with CD11b/CD18 is “no significant effect”.

With RGDPHQGVLAQGDIIMDAKG [FHA Ca], the neutropenia entry in data set [1] is “No neutropenia was observed”. In addition, the “reduction of binding of C3bi-coated erythrocytes to macrophages” value with CD11b/CD18 (IB4 50 μg/ml) was 61±7%.

For “native FHA: Filamentous hemagglutinin, 220kD surface associated protein of Bordetella pertussis (List Biologicals)”, in data set [4], the pIC50 is 7.00 and the “inhibition of 125I-Factor X binding to neutrophils” value came out at 70±4%. In addition, the “binding to lactosylceramide (in words)” value in data set [5] is listed as “binds to lactosylceramide”.

These data come from patent US5792457A, “Antibody recognizing endothelial cell ligand for leukocyte CR3” (priority 1995, dated 1998).
